Here are results for 5 compounds from PubChem BioAssay AID1963446 (Molecular Pharmacology Branch, DTP, NCI, 2024).

Values joined by “and” are separate entries in the source; they are usually repeats but may differ in a detail not shown here. Identical values can stand only once. A value given as a limit tells only on which side of the number the result lay.

As usually defined, the viability, T/C is the ratio of treated to control. The IC50 is the concentration that inhibits the measured activity by half.

The subject of the assay is 993429-296-R-J1-PDC complex spheroid growth, percent test/control. Briefly: Anticancer human tumor 993429-296-R-J1-PDC patient-derived uterine sarcoma cell line growth inhibition [Asc]. The conditions noted are these: for viability, T/C: stronger effect = lower value. The method in brief:
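Concentration series start at each agent's clinical Cmax, or at 10 microM when none is established, and drop in half-log steps; agents are applied alone or together to complex spheroids built with HUVEC and hMSC.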
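Further: spheroids exposed to compounds for seven days.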

For `CCN1CCN(Cc2ccc(Nc3ncc(F)c(-c4cc(F)c5nc(C)n(C(C)C)c5c4)n3)nc2)CC1`, the viability, T/C reads like this: (compound 0.00316 µM) 90.1% (2×) and 100%; (compound 0.01 µM) 86.7% and 111% and 99.3%; (compound 0.0316 µM) 94.1% and 105% and 92.7%; (compound 0.1 µM) 85.6% and 98.3% and 93.6%; (compound 0.316 µM) 98.6% and 119% and 100%; (compound 1 µM) 88.5% and 94.9% and 86.3%. In addition, the half-maximal inhibitory concentration (IC50) (curve of compound) was > 1000 nM.
As for `O=C(c1cc(Cc2n[nH]c(=O)c3ccccc23)ccc1F)N1CCN(C(=O)C2CC2)CC1`, the viability, T/C was 83.4% and 99.6% and 106% (compound 0.0316 µM); 84.4% and 88.2% and 103% (compound 0.1 µM); 90.3% and 89.3% and 93% (compound 0.316 µM); 72.8% and 82.6% and 105% (compound 1 µM); 67.7% and 68.7% and 83.8% (compound 3.16 µM); 25.3% and 43% and 44.8% (compound 10 µM). For the same compound, the concentration for half-maximal inhibition (IC50) (curve of compound) is 4950 nM and 7380 nM and 8570 nM.
As for `Cc1c(S(C)(=O)=O)c(-c2cc(F)cc(N3CCN(c4ccc(NS(=O)(=O)c5ccc(NC(CCN6CCC(C(=O)OCCCP(=O)(O)O)CC6)CSc6ccccc6)c(S(=O)(=O)C(F)(F)F)c5)cc4)CC3)c2)c(-c2ccc(Cl)cc2)n1C(C)C` (stereo unspecified), the viability, T/C is, setting by setting: (compound 0.316 µM) 60.7% [middle of 14 runs]; (compound 3.16 µM) 49.6% [middle of 14 runs].
As for `CNC(C)C(=O)NC1CN(S(=O)(=O)c2cccc(S(=O)(=O)N3CCC4CCC(C(=O)NC(c5ccccc5)c5ccccc5)N4C(=O)C(NC(=O)C(C)NC)C3)c2)CCC2CCC(C(=O)NC(c3ccccc3)c3ccccc3)N2C1=O` (stereo unspecified) + CCN1C(C(=O)NC23CCC(C(=O)O)(CC2)CC3)C(c2cccc(Cl)c2F)C2(C(=O)Nc3cc(Cl)ccc32)C12CCCCC2, the IC50 was > 1000 nM (curve of first compound, second compound 0.03 µM); > 1000 nM (curve of first compound, second compound 0.0949 µM); > 1000 nM (curve of first compound, second compound 0.3 µM); > 1000 nM (curve of first compound, second compound 0.949 µM); 287 nM (curve of first compound, second compound 3 µM). Further, the viability, T/C (second compound 0.03 µM, first compound 0.00316 µM) is 71.4%; the viability, T/C (second compound 0.03 µM, first compound 0.01 µM) was 62.7%; the viability, T/C (second compound 0.03 µM, first compound 0.0316 µM) is 57.5%; the viability, T/C (second compound 0.03 µM, first compound 0.1 µM) is 57%; the viability, T/C (second compound 0.03 µM, first compound 0.316 µM) was 58%; the viability, T/C (second compound 0.03 µM, first compound 1 µM) was 51.7%. Further, the viability, T/C is 61.2% (second compound 0.0949 µM, first compound 0.00316 µM); 69.8% (second compound 0.0949 µM, first compound 0.01 µM); 65% (second compound 0.0949 µM, first compound 0.0316 µM); 68.7% (second compound 0.0949 µM, first compound 0.1 µM); 53.7% (second compound 0.0949 µM, first compound 0.316 µM); 57.3% (second compound 0.0949 µM, first compound 1 µM). Further, the viability, T/C reads like this: (second compound 0.3 µM, first compound 0.00316 µM) 64.9%; (second compound 0.3 µM, first compound 0.01 µM) 79.5%; (second compound 0.3 µM, first compound 0.0316 µM) 66.3%; (second compound 0.3 µM, first compound 0.1 µM) 53.9%; (second compound 0.3 µM, first compound 0.316 µM) 62.6%; (second compound 0.3 µM, first compound 1 µM) 59.4%. For the same compound, the viability, T/C reads like this: (second compound 0.949 µM, first compound 0.00316 µM) 77.3%; (second compound 0.949 µM, first compound 0.01 µM) 64.3%; (second compound 0.949 µM, first compound 0.0316 µM) 62.7%; (second compound 0.949 µM, first compound 0.1 µM) 65.2%; (second compound 0.949 µM, first compound 0.316 µM) 55.9%; (second compound 0.949 µM, first compound 1 µM) 61.1%. Also, the viability, T/C is 77.9% (second compound 3 µM, first compound 0.00316 µM); 66.8% (second compound 3 µM, first compound 0.01 µM); 59.2% (second compound 3 µM, first compound 0.0316 µM); 48.3% (second compound 3 µM, first compound 0.1 µM); 53.5% (second compound 3 µM, first compound 0.316 µM); 47.7% (second compound 3 µM, first compound 1 µM).
As for `CCN1CCN(Cc2ccc(Nc3ncc(F)c(-c4cc(F)c5nc(C)n(C(C)C)c5c4)n3)nc2)CC1` + CNC(C)C(=O)NC1CN(S(=O)(=O)c2cccc(S(=O)(=O)N3CCC4CCC(C(=O)NC(c5ccccc5)c5ccccc5)N4C(=O)C(NC(=O)C(C)NC)C3)c2)CCC2CCC(C(=O)NC(c3ccccc3)c3ccccc3)N2C1=O, the concentration for half-maximal inhibition (IC50) was > 1000 nM (curve of first compound, second compound 0.01 µM); > 1000 nM (curve of first compound, second compound 0.0316 µM); > 1000 nM (curve of first compound, second compound 0.1 µM); < 3.16 nM (curve of first compound, second compound 0.316 µM); > 1000 nM (curve of first compound, second compound 1 µM). In addition, the viability, T/C is 58.4% (second compound 0.01 µM, first compound 0.00316 µM); 66.1% (second compound 0.01 µM, first compound 0.01 µM); 64% (second compound 0.01 µM, first compound 0.0316 µM); 68.4% (second compound 0.01 µM, first compound 0.1 µM); 67.7% (second compound 0.01 µM, first compound 0.316 µM); 76% (second compound 0.01 µM, first compound 1 µM). Further, the viability, T/C (second compound 0.0316 µM, first compound 0.00316 µM) was 54.1%; the viability, T/C (second compound 0.0316 µM, first compound 0.01 µM) is 63.4%; the viability, T/C (second compound 0.0316 µM, first compound 0.0316 µM) was 59.5%; the viability, T/C (second compound 0.0316 µM, first compound 0.1 µM) was 53.6%; the viability, T/C (second compound 0.0316 µM, first compound 0.316 µM) is 71.4%; the viability, T/C (second compound 0.0316 µM, first compound 1 µM) is 77.4%. The viability, T/C by setting is: (second compound 0.1 µM, first compound 0.00316 µM) 52%; (second compound 0.1 µM, first compound 0.01 µM) 54%; (second compound 0.1 µM, first compound 0.0316 µM) 56.2%; (second compound 0.1 µM, first compound 0.1 µM) 54%; (second compound 0.1 µM, first compound 0.316 µM) 59.8%; (second compound 0.1 µM, first compound 1 µM) 62.4%. Moreover, the viability, T/C (second compound 0.316 µM, first compound 0.00316 µM) was 45.3%; the viability, T/C (second compound 0.316 µM, first compound 0.01 µM) was 46.2%; the viability, T/C (second compound 0.316 µM, first compound 0.0316 µM) was 41%; the viability, T/C (second compound 0.316 µM, first compound 0.1 µM) was 53.2%; the viability, T/C (second compound 0.316 µM, first compound 0.316 µM) was 69%; the viability, T/C (second compound 0.316 µM, first compound 1 µM) is 70%. Also, the viability, T/C is 53.5% (second compound 1 µM, first compound 0.00316 µM); 58.7% (second compound 1 µM, first compound 0.01 µM); 38.9% (second compound 1 µM, first compound 0.0316 µM); 51.4% (second compound 1 µM, first compound 0.1 µM); 49.6% (second compound 1 µM, first compound 0.316 µM); 60.3% (second compound 1 µM, first compound 1 µM).
